{"source": "patent US11628179B2", "about": "“Compounds for treating and preventing extracellular histone mediated pathologies” (priority 2017, dated 2023)", "key": {"Sprague-Dawley rats": {"tested_on": "Sprague-Dawley rats", "description": "The objective of these studies was to determine the toxicity of the test item, mCBS, when administered by continuous (24 hours/day) intravenous infusion through a surgically implanted catheter for 7 consecutive days to Sprague-Dawley rats.\nThe test and control item dose formulations of mCBS (in the form of the heptasodium salt mCBS.Na) were administered to groups of rats by continuous (24 hours/day) intravenous infusion for 7 consecutive days as described in the Table 14 below.\nParameters monitored during this study included mortality, clinical observations, body weights and food consumption. In addition, hematology, coagulation and clinical chemistry parameters were evaluated on Day 9. Blood samples were collected from the animals at timepoints relative to the start of the infusion for analysis of test item concentration in plasma. At termination (Day 9), all animals were euthanized and subjected to a gross necropsy examination. Organ weights were measured on selected organs and a selected list of tissues, including gross lesions, were retained and prepared for microscopic evaluation."}, "[1]": {"test": "Pharmacokinetics, intravenous bolus 20 mg/kg", "type": "in vivo, rat", "description": "A total of ten blood samples were collected from three rats at time points ranging from pre-dose to 48 hours post-dose. The resulting blood samples were processed to plasma and subsequently analysed for the concentration of mCBS (free-base) using an LC-MS/MS based method. The plasma concentration versus time data were used for calculation of pharmacokinetic parameters."}, "[2]": {"conditions": "animals treated with 1394 mg/kg/day (free base)"}, "[3]": {"conditions": "IV bolus 20 mg/kg as sodium salt"}}, "note": "Structures can show the parent of a compound that is named as a salt. Where two headings read alike, the source gives them in different places."}
{"smiles": "CO[C@@H]1O[C@H](COS(=O)(=O)O)[C@@H](O[C@@H]2O[C@H](COS(=O)(=O)O)[C@@H](OS(=O)(=O)O)[C@H](OS(=O)(=O)O)[C@H]2OS(=O)(=O)O)[C@H](OS(=O)(=O)O)[C@H]1OS(=O)(=O)O", "note": "[mCBS, β-O-methyl cellobioside sulfate]", "values": [{"measurement": "AUC5-96 h and Css versus dose", "setting": "Sprague-Dawley rats; 1394-5575 mg/kg/day", "result": "increased linearly with dose"}, {"measurement": "plasma concentration versus time", "setting": "Sprague-Dawley rats; 5 h to 96 h (or 168 h) infusion interval", "result": "steady state concentrations of mCBS were maintained"}, {"measurement": "liver microscopic findings", "setting": "Sprague-Dawley rats; [2]", "result": "accumulation of foamy Kupffer cells"}, {"measurement": "lymph node microscopic findings", "setting": "Sprague-Dawley rats; [2]", "result": "accumulation of foam macrophages"}, {"measurement": "liver microscopic findings", "setting": "Sprague-Dawley rats; animals treated with 2178 mg/kg/day (free base)", "result": "single cell necrosis"}, {"measurement": "liver microscopic findings", "setting": "Sprague-Dawley rats; animals treated with 2178 and 5575 mg/kg/day", "result": "focal or multiple focal necrosis"}, {"measurement": "spleen microscopic findings", "setting": "Sprague-Dawley rats; animals treated with ≤1394 mg/kg/day (so in the source), free base", "result": "accumulation of foamy macrophages associated with increased apoptotic cells in the red pulp"}, {"measurement": "kidney microscopic findings", "setting": "Sprague-Dawley rats; animals treated with ≤2178 mg/kg/day (so in the source), free base", "result": "proximal tubular vacuolation/rarefaction"}, {"measurement": "urea, total protein and albumin", "setting": "Sprague-Dawley rats; both sexes at 5575 mg/kg/day", "result": "increase in urea and decreases in total protein and albumin"}, {"measurement": "white blood cell lines", "setting": "Sprague-Dawley rats; both sexes at doses ≤3484 mg/kg/day (so in the source)", "result": "Increases in white blood cell lines"}, {"measurement": "body weight gain and food consumption", "setting": "Sprague-Dawley rats; both sexes, 5575 mg/kg/day (free base)", "result": "Decreases in body weight gain"}, {"measurement": "No Observable Adverse Effect Level (NOAEL)", "setting": "Sprague-Dawley rats; free base, corrected for potency and salt content, continuous IV infusion 7 days", "result": 1394, "unit": "mg/kg/day"}, {"measurement": "red blood cell parameters and reticulocytes", "setting": "Sprague-Dawley rats; males at 5575 mg/kg/day", "result": "decreases in red blood cell counts, hemoglobin, hematocrit, mean corpuscular volume and mean corpuscular hemoglobin concentration as well as increases in the reticulocytes"}, {"measurement": "activated partial thromboplastin time", "setting": "Sprague-Dawley rats; males at doses 2178 mg/kg/day, females at doses ≤3484 mg/kg/day (so in the source)", "result": "Increases in activated partial thromboplastin time"}, {"measurement": "Liver enzymes (ALT, AST), cholesterol and triglycerides", "setting": "Sprague-Dawley rats; males dosed at 5575 mg/kg/day", "result": "increased"}, {"measurement": "AUCinf, mean (±SEM)", "setting": "[1]; [3]", "result": "35000 (±2940) ng·h/mL"}, {"measurement": "AUClast, mean (±SEM)", "setting": "[1]; [3]", "result": "34300 (±2460) ng·h/mL"}, {"measurement": "apparent elimination half-life (T½), mean (±SEM)", "setting": "[1]; [3]", "result": "77.5 (±54.5) h"}, {"measurement": "mean residence time (MRT), mean (±SEM)", "setting": "[1]; [3]", "result": "5.58 (±3.99) h"}, {"measurement": "total body clearance (Cl), mean (±SEM)", "setting": "[1]; [3]", "result": "0.472 (±0.0377) L/h/kg"}, {"measurement": "volume of distribution (Vz), mean (±SEM)", "setting": "[1]; [3]", "result": "46.9 (±30.7) L/kg"}, {"measurement": "concentration at time zero (C0), mean (±SEM)", "setting": "[1]; IV bolus 20 mg/kg as sodium salt (16.3 mg/kg free base), plasma, n=3", "result": "73400 (±8560) ng/mL"}, {"measurement": "administered dose removed from the central compartment", "setting": "[1]; IV bolus 20 mg/kg, first 4 hours", "result": "over 90%"}]}
